From ChEMBL document CHEMBL5634109, “Synthesis and mechanism of action of new purine derivatives against triple negative breast cancer” (Eur J Med Chem, 2023)
Activity calls are given as the source filed them. The rule behind the calls is not given here.

How the values were obtained:
K562 = test: Antiproliferative activity against human K562 cells assessed as reduction in cell viability measured for 48 hrs by MTT assay; format: functional, cell-based; settings: K562, 48 h
HepG2 = test: Antiproliferative activity against human HepG2 cells assessed as reduction in cell viability measured for 48 hrs by MTT assay; format: functional, cell-based; settings: HepG2, 48 h
HCT-116 = test: Antiproliferative activity against human HCT-116 cells assessed as reduction in cell viability measured for 48 hrs by MTT assay; format: functional, cell-based; settings: HCT-116, 48 h
MCF7 = test: Antiproliferative activity against human MCF7 cells assessed as reduction in cell viability measured for 48 hrs by MTT assay; format: functional, cell-based; settings: MCF7, 48 h
MGC-803 = test: Antiproliferative activity against human MGC-803 cells assessed as reduction in cell viability measured for 48 hrs by MTT assay; format: functional, cell-based; settings: MGC-803, 48 h
A549 = test: Antiproliferative activity against human A549 cells assessed as reduction in cell viability measured for 48 hrs by MTT assay; format: functional, cell-based; settings: A549, 48 h
NCI-H1299 = test: Antiproliferative activity against human NCI-H1299 cells assessed as reduction in cell viability measured for 48 hrs by MTT assay; format: functional, cell-based; settings: NCI-H1299, 48 h
HT-29 = test: Antiproliferative activity against human HT-29 cells assessed as reduction in cell viability measured for 48 hrs by MTT assay; format: functional, cell-based; settings: HT-29, 48 h
PC-3 = test: Antiproliferative activity against human PC-3 cells assessed as reduction in cell viability measured for 48 hrs by MTT assay; format: functional, cell-based; settings: PC-3, 48 h
MDA-MB-231 [1] = test: Antiproliferative activity against human MDA-MB-231 cells assessed as reduction in cell viability measured for 48 hrs by MTT assay; format: functional, cell-based; settings: MDA-MB-231, 48 h
MDA-MB-468 = test: Antiproliferative activity against human MDA-MB-468 cells assessed as reduction in cell viability measured for 48 hrs by MTT assay; format: functional, cell-based; settings: MDA-MB-468, 48 h
[2] = Antiproliferative activity against human HUVEC cells assessed as reduction in cell viability measured for 48 hrs by MTT assay; format: toxicity, cell-based
[3] = Antiproliferative activity against human HEK293 cells assessed as reduction in cell viability measured for 48 hrs by MTT assay; format: toxicity, cell-based
[4] = molecular target: T1, Cyclin-dependent kinase 7 (Homo sapiens, UniProt P50613); test: Inhibition of CDK7 (unknown origin)
[5] = molecular target: T2, Dual specificity protein kinase CLK2 (Homo sapiens, UniProt P49760); test: Inhibition of CLK2 (unknown origin)
Target sequence in this assay (P49760 whole entry): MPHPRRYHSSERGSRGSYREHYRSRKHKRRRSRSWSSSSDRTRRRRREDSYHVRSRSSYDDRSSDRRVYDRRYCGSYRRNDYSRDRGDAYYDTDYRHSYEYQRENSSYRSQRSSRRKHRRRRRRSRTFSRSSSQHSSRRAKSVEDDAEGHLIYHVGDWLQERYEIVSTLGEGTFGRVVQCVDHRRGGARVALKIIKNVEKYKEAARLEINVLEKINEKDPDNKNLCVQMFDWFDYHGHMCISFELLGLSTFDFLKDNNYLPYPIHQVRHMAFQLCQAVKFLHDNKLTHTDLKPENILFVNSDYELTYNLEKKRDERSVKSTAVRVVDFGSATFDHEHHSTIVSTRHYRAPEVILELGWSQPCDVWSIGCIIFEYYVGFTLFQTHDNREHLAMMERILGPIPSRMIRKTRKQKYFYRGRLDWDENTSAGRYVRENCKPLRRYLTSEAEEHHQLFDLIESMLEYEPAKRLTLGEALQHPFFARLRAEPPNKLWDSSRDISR

[6] = molecular target: T3, Dual specificity protein kinase CLK4 (Homo sapiens, UniProt Q9HAZ1); test: Inhibition of CLK4 (unknown origin)
Target sequence in this assay (Q9HAZ1 whole entry): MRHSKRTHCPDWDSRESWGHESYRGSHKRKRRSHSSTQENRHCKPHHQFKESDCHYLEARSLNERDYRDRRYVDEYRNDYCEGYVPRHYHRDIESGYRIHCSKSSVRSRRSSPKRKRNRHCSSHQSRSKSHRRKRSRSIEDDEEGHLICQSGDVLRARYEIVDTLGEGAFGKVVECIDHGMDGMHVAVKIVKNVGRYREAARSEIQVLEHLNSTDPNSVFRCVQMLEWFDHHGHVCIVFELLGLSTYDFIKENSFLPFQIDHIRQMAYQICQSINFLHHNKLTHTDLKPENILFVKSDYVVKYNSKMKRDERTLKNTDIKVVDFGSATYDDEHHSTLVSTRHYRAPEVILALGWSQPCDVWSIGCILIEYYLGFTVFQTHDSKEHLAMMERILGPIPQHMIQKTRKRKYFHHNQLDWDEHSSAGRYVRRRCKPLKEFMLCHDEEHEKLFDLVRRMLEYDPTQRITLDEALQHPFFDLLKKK

[7] = molecular target: Dual specificity protein kinase CLK1 (Homo sapiens, UniProt P49759); test: Inhibition of CLK1 (unknown origin)
[8] = molecular target: Casein kinase I isoform epsilon (Homo sapiens, UniProt P49674); test: Inhibition of CK1epsilon (unknown origin)
[9] = molecular target: Dual specificity tyrosine-phosphorylation-regulated kinase 1A (Homo sapiens, UniProt Q13627); test: Inhibition of DYRK1A (unknown origin)
[10] = molecular target: T1, Cyclin-dependent kinase 7; test: Inhibition of CDK7 (unknown origin) at 1 uM relative to control
[11] = molecular target: T1, Cyclin-dependent kinase 7; test: Inhibition of CDK7 (unknown origin) at 10 uM relative to control
[12] = molecular target: T2, Dual specificity protein kinase CLK2; test: Inhibition of CLK2 (unknown origin) at 1 uM relative to control
Target sequence in this assay (P49760 whole entry, looked up): as the sequence (P49760 whole entry) above

[13] = molecular target: T2, Dual specificity protein kinase CLK2; test: Inhibition of CLK2 (unknown origin) at 10 uM relative to control
Target sequence in this assay (P49760 whole entry, looked up): as the sequence (P49760 whole entry) above

[14] = molecular target: T3, Dual specificity protein kinase CLK4; test: Inhibition of CLK4 (unknown origin) at 1 uM relative to control
Target sequence in this assay (Q9HAZ1 whole entry, looked up): as the sequence (Q9HAZ1 whole entry) above

[15] = molecular target: T3, Dual specificity protein kinase CLK4; test: Inhibition of CLK4 (unknown origin) at 10 uM relative to control
Target sequence in this assay (Q9HAZ1 whole entry, looked up): as the sequence (Q9HAZ1 whole entry) above

[16] = molecular target: T4, Cyclin-dependent kinase 2/cyclin E1 (Homo sapiens) (UniProt P24864+P24941); test: Inhibition of CDK2/Cyclin E (unknown origin) at 1 uM relative to control; format: protein-complex assay
[17] = molecular target: T4, Cyclin-dependent kinase 2/cyclin E1 (Homo sapiens); test: Inhibition of CDK2/Cyclin E (unknown origin) at 10 uM relative to control; format: protein-complex assay
[18] = molecular target: T5, Cyclin-dependent kinase 5/CDK5 activator 1 (Homo sapiens) (UniProt Q00535+Q15078); test: Inhibition of CDK5/P25 (unknown origin) at 1 uM relative to control; format: protein-complex assay
[19] = molecular target: T5, Cyclin-dependent kinase 5/CDK5 activator 1 (Homo sapiens); test: Inhibition of CDK5/P25 (unknown origin) at 10 uM relative to control; format: protein-complex assay
[20] = molecular target: Cyclin-dependent kinase 9 (Homo sapiens) (UniProt P50750); test: Inhibition of CDK9 (unknown origin) at 1 uM relative to control
[21] = molecular target: Cyclin-dependent kinase 9 (Homo sapiens) (UniProt P50750); test: Inhibition of CDK9 (unknown origin) at 10 uM relative to control
MDA-MB-231 [22] = test: Induction of ROS generation in human MDA-MB-231 cells assessed as increase in intracellular ROS level at 40 uM incubated for 48 hrs by DCFH-DA staining based fluorescence microscopic analysis (Rvb= 24.7%); format: functional
Cell membrane = test: Induction of mitochondrial membrane potential loss in human MDA-MB-231 cells assessed as increase in fluorescence intensity at 40 uM incubated for 48 hrs by TMRM dye based flow cytometry analysis (reference value: 97.5%)
MDA-MB-231 [23] = test: Inhibition of cell migration human MDA-MB-231 cells assessed as migration distance at 25 uM incubated for 24 hrs by wound healing assay (reference value: 642.72 micrometer); format: functional
MDA-MB-231 [24] = test: Inhibition of cell migration human MDA-MB-231 cells assessed as migration distance at 25 uM incubated for 48 hrs by wound healing assay (reference value: 642.72 micrometer); format: functional
MDA-MB-231 [25] = test: Inhibition of cell migration human MDA-MB-231 cells at 0.01 to 0.4 uM incubated for 20 hrs by DAPI staining based analysis; format: functional; settings: dose 0.01-0.4 µM
HUVEC = test: Antiangiogenesis activity in HUVEC cells at 125 nM incubated for 12 hrs by microscopic analysis; format: functional, cell-based; settings: Homo sapiens

Casein kinase I isoform epsilon, sequence (P49674 whole entry, canonical isoform): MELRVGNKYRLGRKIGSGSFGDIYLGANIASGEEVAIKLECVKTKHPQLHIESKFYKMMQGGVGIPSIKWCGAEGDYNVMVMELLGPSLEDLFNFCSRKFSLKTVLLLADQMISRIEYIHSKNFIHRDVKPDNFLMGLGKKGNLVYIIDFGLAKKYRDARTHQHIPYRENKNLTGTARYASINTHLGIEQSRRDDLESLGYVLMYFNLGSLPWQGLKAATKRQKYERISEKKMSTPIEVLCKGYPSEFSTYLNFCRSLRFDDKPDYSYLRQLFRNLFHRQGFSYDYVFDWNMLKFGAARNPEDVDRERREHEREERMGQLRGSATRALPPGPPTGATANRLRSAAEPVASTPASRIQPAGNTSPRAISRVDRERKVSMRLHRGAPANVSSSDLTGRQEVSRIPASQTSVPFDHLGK
Dual specificity protein kinase CLK1, sequence (P49759 whole entry, canonical isoform): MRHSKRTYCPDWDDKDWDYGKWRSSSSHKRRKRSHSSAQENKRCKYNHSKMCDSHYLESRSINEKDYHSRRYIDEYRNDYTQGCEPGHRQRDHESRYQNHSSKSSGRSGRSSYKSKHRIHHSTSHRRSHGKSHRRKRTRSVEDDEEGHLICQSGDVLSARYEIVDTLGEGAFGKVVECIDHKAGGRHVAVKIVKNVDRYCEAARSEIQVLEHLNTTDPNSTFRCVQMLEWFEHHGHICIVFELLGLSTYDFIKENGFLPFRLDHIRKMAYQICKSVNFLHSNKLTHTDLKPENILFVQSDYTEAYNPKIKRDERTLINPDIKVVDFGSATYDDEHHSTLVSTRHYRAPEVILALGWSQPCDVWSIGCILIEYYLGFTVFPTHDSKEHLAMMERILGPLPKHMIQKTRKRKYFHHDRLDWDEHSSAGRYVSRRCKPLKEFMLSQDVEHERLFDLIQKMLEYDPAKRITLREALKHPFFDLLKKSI
T1 sequence (P50613 whole entry): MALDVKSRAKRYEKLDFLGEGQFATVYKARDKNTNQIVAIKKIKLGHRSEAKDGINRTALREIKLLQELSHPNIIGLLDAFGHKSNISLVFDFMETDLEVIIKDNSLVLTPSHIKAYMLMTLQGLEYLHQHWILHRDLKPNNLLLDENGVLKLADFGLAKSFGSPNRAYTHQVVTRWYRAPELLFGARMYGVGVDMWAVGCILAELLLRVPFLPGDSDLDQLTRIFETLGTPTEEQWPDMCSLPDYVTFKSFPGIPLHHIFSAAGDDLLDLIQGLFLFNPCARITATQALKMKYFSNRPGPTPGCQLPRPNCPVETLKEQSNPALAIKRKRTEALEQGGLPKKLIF
T5 sequence (Q00535 whole entry): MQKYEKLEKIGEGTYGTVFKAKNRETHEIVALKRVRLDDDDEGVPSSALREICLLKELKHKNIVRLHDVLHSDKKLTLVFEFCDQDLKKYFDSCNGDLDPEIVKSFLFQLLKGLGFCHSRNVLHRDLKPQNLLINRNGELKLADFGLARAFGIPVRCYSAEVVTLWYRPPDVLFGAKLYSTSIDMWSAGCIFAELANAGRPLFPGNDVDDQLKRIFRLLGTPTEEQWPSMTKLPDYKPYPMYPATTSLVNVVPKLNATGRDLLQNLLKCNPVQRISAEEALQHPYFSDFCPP
T5 sequence (Q15078 99-307 partner limits assumed): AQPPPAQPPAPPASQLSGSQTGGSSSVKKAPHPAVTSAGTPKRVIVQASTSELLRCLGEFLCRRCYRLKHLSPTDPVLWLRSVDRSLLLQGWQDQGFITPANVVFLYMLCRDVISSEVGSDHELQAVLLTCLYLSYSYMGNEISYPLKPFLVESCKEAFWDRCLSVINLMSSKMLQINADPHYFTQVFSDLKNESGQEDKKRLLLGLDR
Cyclin-dependent kinase 9 (Homo sapiens), sequence (P50750 whole entry): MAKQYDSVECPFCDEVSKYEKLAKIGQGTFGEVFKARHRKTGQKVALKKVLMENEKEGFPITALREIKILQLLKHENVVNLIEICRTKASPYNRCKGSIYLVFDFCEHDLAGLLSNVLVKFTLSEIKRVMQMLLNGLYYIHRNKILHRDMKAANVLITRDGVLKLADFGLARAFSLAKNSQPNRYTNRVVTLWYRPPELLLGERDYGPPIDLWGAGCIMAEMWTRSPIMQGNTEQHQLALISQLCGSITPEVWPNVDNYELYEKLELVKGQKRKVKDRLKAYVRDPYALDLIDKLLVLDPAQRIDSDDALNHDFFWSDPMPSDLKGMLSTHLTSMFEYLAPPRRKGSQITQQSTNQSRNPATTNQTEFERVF

## CC(C)n1cnc2c(NCc3ccncc3)nc(N3CCC(C4CCN(CCO)CC4)CC3)nc21
K562
  IC50: 31 µM
HepG2
  IC50: 58.8 µM
HCT-116
  IC50: 24.4 µM
MCF7
  IC50: 10.1 µM
MGC-803
  IC50: > 100 µM
A549
  IC50: 34.7 µM
NCI-H1299
  IC50: 38.7 µM
HT-29
  IC50: 35.9 µM

## CC[C@@]1(O)C(=O)OCc2c1cc1n(c2=O)Cc2cc3ccccc3nc2-1 [CAMPTOTHECIN]
K562
  IC50: 0.08 µM
HCT-116
  IC50: 0.21 µM
MCF7
  IC50: 6.39 µM
MGC-803
  IC50: > 100 µM
A549
  IC50: 5.5 µM
NCI-H1299
  IC50: > 100 µM
HT-29
  IC50: 0.19 µM
PC-3
  IC50: > 100 µM
MDA-MB-231 [1]
  IC50: > 100 µM
MDA-MB-468
  IC50: > 100 µM
[2]
  IC50 at 48 h: 0.04 µM
[3]
  IC50 at 48 h: 0.81 µM

## CC(C)n1cnc2c(NCc3cccnc3Cl)nc(N3CCC(C4CCN(CCO)CC4)CC3)nc21
K562
  IC50: > 100 µM
HepG2
  IC50: > 100 µM
HCT-116
  IC50: 54.5 µM
MCF7
  IC50: > 100 µM
MGC-803
  IC50: > 100 µM
A549
  IC50: > 100 µM
NCI-H1299
  IC50: > 100 µM
HT-29
  IC50: > 100 µM

## OCCN1CCC(C2CCN(c3nc(NCc4ccc(Cl)c(F)c4)c4ncn(C5CCCC5)c4n3)CC2)CC1
[4]
  IC50: 2.04 µM
[5]
  IC50: 0.058 µM
[6]
  IC50: 0.126 µM
[7]
  IC50: 0.78 µM
[8]
  IC50: 0.193 µM
[9]
  IC50: 0.445 µM
K562
  IC50: 2.63 µM
HepG2
  IC50: 1.75 µM
HCT-116
  IC50: 2.95 µM
MCF7
  IC50: 2.83 µM
MGC-803
  IC50: 19.9 µM
A549
  IC50: 3.54 µM
NCI-H1299
  IC50: 4.77 µM
HT-29
  IC50: 4.21 µM
PC-3
  IC50: 7.2 µM

## CC(C)n1cnc2c(NCc3ccccc3)nc(N3CCC(C4CCN(CCO)CC4)CC3)nc21
[10]
  inhibition: 88%
[11]
  inhibition: 96%
[12]
  inhibition: 99%
[13]
  inhibition: 99%
[14]
  inhibition: 92%
[15]
  inhibition: 97%
[16]
  inhibition: 2%
[17]
  inhibition: 49%
[18]
  inhibition: 4%
[19]
  inhibition: 42%
[20]
  inhibition: 8%
[21]
  inhibition: 40%
[4]
  IC50: 0.143 µM
[5]
  IC50: 0.068 µM
[6]
  IC50: 0.158 µM
[7]
  IC50: 0.412 µM
[8]
  IC50: 0.771 µM
[9]
  IC50: 0.877 µM
HepG2
  IC50: 1.82 µM
HCT-116
  IC50: 2.23 µM
HT-29
  IC50: 3.17 µM

## OCCN1CCC(C2CCN(c3nc(NCc4cc(F)cc(F)c4)c4ncn(C5CCCC5)c4n3)CC2)CC1
K562
  IC50: 2.54 µM
HepG2
  IC50: 4.43 µM
HCT-116
  IC50: 41.9 µM
MCF7
  IC50: 2.93 µM
MGC-803
  IC50: 5.7 µM
A549
  IC50: 2.33 µM
NCI-H1299
  IC50: 6.49 µM
HT-29
  IC50: 3.41 µM
PC-3
  IC50: 4.36 µM

## CC[C@H](CO)Nc1nc(NCc2ccccc2)c2ncn(C(C)C)c2n1 [SELICICLIB]
MDA-MB-231 [22]
  Activity: 21.8%
K562
  IC50: > 100 µM
HepG2
  IC50: > 100 µM
HCT-116
  IC50: 17.3 µM
MCF7
  IC50: > 100 µM
MGC-803
  IC50: > 100 µM
A549
  IC50: > 100 µM
NCI-H1299
  IC50: 83 µM
HT-29
  IC50: > 100 µM
PC-3
  IC50: > 100 µM
Cell membrane
  Activity: 87.5%
MDA-MB-231 [23]
  Activity: 348.27 um
MDA-MB-231 [24]
  Activity: 453.91 um
MDA-MB-231 [25]
  inhibition: Active
HUVEC
  Activity: Active

## CC(C)n1cnc2c(NCc3ccc(F)c(F)c3)nc(N3CCC(C4CCN(CCO)CC4)CC3)nc21
[4]
  IC50: 0.597 µM
[5]
  IC50: 0.08 µM
[6]
  IC50: 0.31 µM
[7]
  IC50: 0.949 µM
[8]
  IC50: 0.415 µM
[9]
  IC50: 0.79 µM
K562
  IC50: 0.44 µM
HepG2
  IC50: 3.05 µM
HCT-116
  IC50: 2.8 µM
MCF7
  IC50: 3.05 µM
MGC-803
  IC50: 5.07 µM
A549
  IC50: 2.49 µM
NCI-H1299
  IC50: 19.6 µM
HT-29
  IC50: 3.47 µM
PC-3
  IC50: 3.95 µM

## CC(C)n1cnc2c(NCc3ccccn3)nc(N3CCC(C4CCN(CCO)CC4)CC3)nc21
[4]
  IC50: 0.043 µM
[5]
  IC50: 0.02 µM
[6]
  IC50: 0.047 µM
[7]
  IC50: 0.173 µM
[8]
  IC50: 0.167 µM
[9]
  IC50: 0.208 µM
K562
  IC50: 28.7 µM
HepG2
  IC50: 76.1 µM
HCT-116
  IC50: 22.8 µM
MCF7
  IC50: 44.5 µM
MGC-803
  IC50: > 100 µM
A549
  IC50: 38.4 µM
NCI-H1299
  IC50: 53.4 µM
HT-29
  IC50: 53.9 µM

## CC(C)n1cnc2c(NCc3cc(F)cnc3Cl)nc(N3CCC(C4CCN(CCO)CC4)CC3)nc21
K562
  IC50: 0.29 µM
HepG2
  IC50: 6.91 µM
HCT-116
  IC50: 0.35 µM
MCF7
  IC50: 6.03 µM
MGC-803
  IC50: 6.78 µM
A549
  IC50: 0.45 µM
NCI-H1299
  IC50: 2.75 µM
HT-29
  IC50: 2.39 µM
MDA-MB-231 [1]
  IC50: 0.4 µM
MDA-MB-468
  IC50: 4.07 µM
[2]
  IC50 at 48 h: 1.55 µM
[3]
  IC50 at 48 h: 0.46 µM
